In paper PMC6444227, “Pharmacological Evaluation of Secondary Metabolites and Their Simultaneous Determination in the Arabian Medicinal Plant Plicosepalus curviflorus Using HPTLC Validated Method” (Journal of Analytical Methods in Chemistry, 2019):
Values after ≈ are worked out from the molar mass of the structure shown.

Legend:
PPARα = target: T1, PPARα (Homo sapiens, UniProt Q07869); assay: PPARα reporter gene assay (luciferase fold induction); type: cell-based; conditions: for PPAR alpha agonistic activity, fold induction: dual activation
T1 construct: expressed in transfected cells
T1 sequence (Q07869 1-468): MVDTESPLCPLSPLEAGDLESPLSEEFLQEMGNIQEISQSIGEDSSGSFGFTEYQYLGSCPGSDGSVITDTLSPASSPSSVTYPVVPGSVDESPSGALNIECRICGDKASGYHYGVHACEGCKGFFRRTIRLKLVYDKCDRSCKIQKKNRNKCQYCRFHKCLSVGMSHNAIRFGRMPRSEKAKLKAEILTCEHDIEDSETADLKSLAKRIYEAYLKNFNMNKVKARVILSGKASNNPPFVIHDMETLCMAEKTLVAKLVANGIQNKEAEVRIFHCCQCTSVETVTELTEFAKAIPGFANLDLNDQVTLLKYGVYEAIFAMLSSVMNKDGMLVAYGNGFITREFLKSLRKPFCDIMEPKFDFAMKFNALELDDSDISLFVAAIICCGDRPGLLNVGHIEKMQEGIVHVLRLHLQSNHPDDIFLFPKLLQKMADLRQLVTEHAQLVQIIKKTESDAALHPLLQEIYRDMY
Description: (§1) A reporter gene assay was carried out as described previously. Briefly, upon confluency, the different concentrations of the test samples were exposed to transfected cells for 24 hrs. Vehicle control was taken into consideration when the fold induction in luciferase activity was calculated. Both rosiglitazone and ciprofibrate were used as control drugs for PPARα and PPARγ, respectively.
(§2) Fold induction in the PPAR activity was detected in response to the methanol fraction and pure compounds according to untreated controls. A fold induction of 1.5 means a 50% increase in PPAR activity. […] Several studies have been carried out with the aim of exploring the potential of selective PPARγ modulators. The dual activator effect of P2 is in agreement with previous literature.

PPARγ = target: T2, PPARγ (Homo sapiens, UniProt P37231); assay: PPARγ reporter gene assay (luciferase fold induction); type: cell-based; conditions: for PPAR gamma agonistic activity, fold induction: dual activation
T2 construct: expressed in transfected cells
T2 sequence (P37231 1-505): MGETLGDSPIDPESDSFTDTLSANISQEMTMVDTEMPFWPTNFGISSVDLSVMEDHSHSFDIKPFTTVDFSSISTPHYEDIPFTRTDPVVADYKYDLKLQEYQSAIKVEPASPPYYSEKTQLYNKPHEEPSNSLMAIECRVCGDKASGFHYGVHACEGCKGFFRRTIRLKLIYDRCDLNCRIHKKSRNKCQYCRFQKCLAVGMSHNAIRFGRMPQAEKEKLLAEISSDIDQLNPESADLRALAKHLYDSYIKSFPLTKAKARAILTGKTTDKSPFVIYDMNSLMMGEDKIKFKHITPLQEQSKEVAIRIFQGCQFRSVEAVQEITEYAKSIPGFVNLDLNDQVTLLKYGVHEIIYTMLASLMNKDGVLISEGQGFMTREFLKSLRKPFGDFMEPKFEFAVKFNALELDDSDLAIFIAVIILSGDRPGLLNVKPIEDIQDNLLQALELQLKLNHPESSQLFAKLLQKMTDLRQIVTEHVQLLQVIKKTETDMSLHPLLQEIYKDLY
Description: as §1, §2

iNOS = iNOS inhibition, nitrite level in LPS-treated macrophages (Griess); type: cell-based, mouse; conditions: for IC50: Mus musculus
Description: Mouse macrophage (RAW264.7) cells were seeded in the wells of 96-well plates followed by 24 hrs for confluency according to the method described previously. The test samples were treated with LPS (5 μg/mL) and followed by 24-hour incubation as well. The nitrite level in cell supernatant was measured by Griess reagent. The dose response curves gave indication for IC50 values. Parthenolide was used as positive control.

HepG2 cells = assay: Cellular antioxidant assay (decrease in oxidative stress, ABAP); type: cell-based, human
Description: Human hepatoma cell line (HepG2) was the cell line of choice in this study according to the previously described method. At a density of 60,000 cells/well, the HepG2 cells were seeded in a 96-well plate and incubated for 24 h for confluency. PBS was used for washing the cells, followed by samples treatment. The SpectraMax plate reader was used for reading the plates after addition of 600 μM of ABAP. The area under the curve (AUC) of fluorescence units and time were two parameters used for indication of the percent decrease in oxidative stress. Percent decrease in oxidative stress = 100 − ((AUC sample/AUC control) × 100). Quercetin was used as a positive control.

[1] = test system: four cancerous cell lines as well as the two normal cell lines; assay: Cytotoxicity, whole panel; type: cell-based; conditions: all cell lines
Description: (§3) Four human cancer cell lines (SK-OV-3, SK-MEL, BT-549 and KB) and two noncancerous kidney cell lines (VERO and LLC-PK1) were measured in the in vitro cytotoxic study. Test samples were added on the cell lines with variable concentrations, followed by 48 h incubation. According to the Borenfreund method, the cell viability was determined at the end of incubation, using doxorubicin as a positive control.

[2] = test system: Escherichia fergusonii (CU928158.2); assay: Antibacterial well diffusion; type: cell-based; conditions: 10 µL per well, mean ± SD
Source text: (§4) (CP017183.1), Escherichia fergusonii (CU928158.2), and Pseudomonas aeruginosa (NR-117678.1) and Gram-positive Staphylococcus aureus (CP011526.1) and Bacillus licheniformis (KX785171.1) using well diffusion and broth microdilution techniques as described by Berghe and […] [16]. The bacterial strains were suspended in a nutrient broth for 24 hr, and the suspension then spread on Mueller-Hinton agar. […] Amikacin was used as the positive control.

[3] = test system: Escherichia fergusonii (CU928158.2); assay: Antibacterial broth microdilution (MIC); type: cell-based; conditions: read-out: MIC, E. fergusonii
Source text: as §4

LLC-PK11 = assay: Cytotoxicity assay (Borenfreund method, 48 h); type: cell-based; conditions: NA = no cytotoxic activity upto 100 µg/mL, read-out: Noncancer cells IC50, LLC-PK11
Description: as §3

NF-κB = NF-κB luciferase reporter gene assay in PMA-treated SW1353 cells; type: cell-based; conditions: Homo sapiens; SW1353, PMA 70 ng/mL 8 h; NA = no activity up to 100 µg/mL; read-out: NF-kB inhibition (IC50)
Description: According to the method described earlier, the 96-well plates with density of 1.25 × 10^5 cells per well were seeded with human chondrosarcoma cells (SW1353) transfected with NF-κB luciferase plasmid construct. After incubation for 24 h, cells were treated with the test samples for half an hour followed by PMA (70 ng/mL) for 8 h. Luciferase assay kit (Promega, Madison, WI, USA) was used for determination of luciferase activity, and parthenolide was used as the positive control in this test.

[4] = test system: Bacillus cereus (ATCC 14579); assay: Antibacterial well diffusion; type: cell-based; conditions: 10 µL per well, mean ± SD
[5] = test system: Bacillus cereus (ATCC 14579); assay: Antibacterial broth microdilution (MIC); type: cell-based; conditions: ATCC14579, read-out: MIC, B. cereus
[6] = test system: Klebsiella pneumonia (ATCC 700603); assay: Antibacterial well diffusion; type: cell-based; conditions: 10 µL per well, mean ± SD
Source text: as §4

[7] = test system: Pseudomonas aeruginosa (ATCC 27853); assay: Antibacterial well diffusion; type: cell-based; conditions: 10 µL per well, mean ± SD
Source text: as §4

Staphylococcus aureus [8] = assay: Antibacterial well diffusion; type: cell-based; conditions: 10 µL per well, mean ± SD
Source text: as §4

[9] = test system: Klebsiella pneumonia (ATCC 700603); assay: Antibacterial broth microdilution (MIC); type: cell-based; conditions: Klebsiella pneumoniae, ATCC700603, read-out: MIC, K. pneumonia
Source text: as §4

[10] = test system: Pseudomonas aeruginosa (ATCC 27853); assay: Antibacterial broth microdilution (MIC); type: cell-based; conditions: ATCC27853, read-out: MIC, P. aeruginosa
Source text: as §4

Staphylococcus aureus [11] = assay: Antibacterial broth microdilution (MIC); type: cell-based; conditions: read-out: MIC, S. aureus
Source text: as §4

[12] = RAW264.7, LPS 5 µg/mL, 24 h, NA = no activity up to 100 µg/mL
[13] = at 250 µg/mL for pure compounds

`CC(C)(Oc1ccc(C2CC2(Cl)Cl)cc1)C(=O)O` (stereo not shown) [Ciprofibrate, reference compound] was tested, and the fold induction at 10 µM (PPARα; control drug at 10 µM, read-out: Fold induction PPAR alpha) was 2.2.
`CN(CCOc1ccc(CC2SC(=O)NC2=O)cc1)c1ccccn1` (stereo not shown) [Rosiglitazone, reference compound] showed a fold induction at 10 µM (PPARγ; control drug at 10 µM, read-out: Fold induction PPAR gamma) of 3.7.
Work on `Oc1cc(O)c2c(c1)O[C@@H](c1ccc(O)c(O)c1)[C@H](O)C2` [Compound P2, (-)-catechin] yielded a fold induction at 12.5 µg/mL (PPARγ; 12.5 µg/mL, 24 hrs, NA = not active, read-out: Fold induction PPAR gamma) of 1.19, a fold induction at 25 µg/mL (PPARγ; 25 µg/mL, 24 hrs, NA = not active, read-out: Fold induction PPAR gamma) of 1.55 and a fold induction at 50 µg/mL (PPARγ; 50 µg/mL, 24 hrs, NA = not active, read-out: Fold induction PPAR gamma) of 1.53. The “PPAR gamma agonistic activity, fold induction” value (PPARγ) was at least 1.5 fold, the “iNOS inhibition (in words)” value (iNOS) was “showed iNOS inhibition” and the IC50 (iNOS; [12]) was over 50 µg/mL. For the same compound, the “% decrease in oxidative stress” value (HepG2 cells; [13]) was 39%, the fold induction at 12.5 µg/mL (PPARα; 12.5 µg/mL, 24 hrs, NA = not active, read-out: Fold induction PPAR alpha) was 1.19 and the fold induction at 25 µg/mL (PPARα; 25 µg/mL, 24 hrs, NA = not active, read-out: Fold induction PPAR alpha) was 1.31. For the same compound, the fold induction at 50 µg/mL (PPARα; 50 µg/mL, 24 hrs, NA = not active, read-out: Fold induction PPAR alpha) was 1.47, the “PPAR alpha agonistic activity, fold induction” value (PPARα) was at least 1.5 fold and the “Cytotoxicity (in words)” value [1] was “not cytotoxic”. The “ZOI diameter, E. fergusonii” value [2] was 8 ± 1 mm, the MIC [3] was 11 µg/mL (≈ 37.9 µM) and the IC50 (LLC-PK11) was 16 µg/mL (≈ 55.1 µM).
In the case of `C=C1C(=O)O[C@H]2[C@H]1CC/C(C)=C/CC[C@@]1(C)O[C@@H]21` [Parthenolide, reference compound], the IC50 (iNOS; [12]) is reported as 0.35 ± 0.22 µg/mL (≈ 1.41 µM) and the IC50 (NF-κB) is reported as 0.5 ± 0.21 µg/mL (≈ 2.01 µM).
`O=C(Oc1cc(O)cc2c1C[C@@H](O)[C@H](c1ccc(O)c(O)c1)O2)c1cc(O)c(O)c(O)c1` [Compound P3, 2S,3R-3,3′,4′,5,7-pentahydroxyflavane-5-O-gallate] was tested, and the “PPAR gamma agonistic activity, fold induction” value (PPARγ) was “no PPAR agonistic activity”, the “iNOS inhibition (in words)” value (iNOS) was “did not show any” and the “% decrease in oxidative stress” value (HepG2 cells; [13]) was 57%. For the same compound, the “PPAR alpha agonistic activity, fold induction” value (PPARα) was “no PPAR agonistic activity” and the “Cytotoxicity (in words)” value [1] was “not cytotoxic”.
In the case of `O=c1c(O)c(-c2ccc(O)c(O)c2)oc2cc(O)cc(O)c12` [Compound P1, quercetin], the “PPAR gamma agonistic activity, fold induction” value (PPARγ) is reported as “no PPAR agonistic activity”, the IC50 (iNOS; RAW264.7, 24 h, RAW264.7, LPS 5 µg/mL, 24 h, NA = no activity up to 100 µg/mL) is reported as 25 µg/mL (≈ 82.7 µM) and the “iNOS inhibition (IC50)” value (iNOS; [12]) is reported as 48 µg/mL. The “ZOI diameter, B. cereus” value [4] was 19.3 ± 1.15 mm, the “% decrease in oxidative stress” value (HepG2 cells; [13]) was 52% and the “% decrease in oxidative stress” value (HepG2 cells; positive control at 50 µM) was 75%. The “PPAR alpha agonistic activity, fold induction” value (PPARα) was “no PPAR agonistic activity”, the “Cytotoxicity (in words)” value [1] was “not cytotoxic” and the MIC [5] was 8.4 µg/mL (≈ 27.8 µM). For the same compound, the “ZOI diameter, E. fergusonii” value [2] was 16.3 ± 0.57 mm, the “ZOI diameter, K. pneumonia” value [6] was 21.3 ± 1.15 mm and the “ZOI diameter, P. aeruginosa” value [7] was 21 ± 1 mm. For the same compound, the “ZOI diameter, S. aureus” value (Staphylococcus aureus [8]) was 18 ± 1 mm, the MIC [3] was 9.3 µg/mL (≈ 30.8 µM) and the MIC [9] was 6.2 µg/mL (≈ 20.5 µM). For the same compound, the MIC [10] was 6.6 µg/mL (≈ 21.8 µM), the MIC (Staphylococcus aureus [11]) was 8.3 µg/mL (≈ 27.5 µM) and the IC50 (LLC-PK11) was 55 µg/mL (≈ 182 µM).
`NCC[C@H](O)C(=O)N[C@@H]1C[C@H](N)[C@@H](O[C@H]2O[C@H](CN)[C@@H](O)[C@H](O)[C@H]2O)[C@H](O)[C@H]1O[C@H]1O[C@H](CO)[C@@H](O)[C@H](N)[C@H]1O` [AMK, Amikacin, reference compound] was tested, and the “ZOI diameter, B. cereus” value [4] was 20 ± 0.9 mm, the MIC [5] was 7.3 µg/mL (≈ 12.5 µM) and the “ZOI diameter, E. fergusonii” value [2] was 24 ± 1.5 mm. The “ZOI diameter, K. pneumonia” value [6] was 25 ± 0.8 mm, the “ZOI diameter, P. aeruginosa” value [7] was 18 ± 1.3 mm and the “ZOI diameter, S. aureus” value (Staphylococcus aureus [8]) was 24 ± 1 mm. For the same compound, the MIC [3] was 4.5 µg/mL (≈ 7.68 µM), the MIC [9] was 5 µg/mL (≈ 8.54 µM) and the MIC [10] was 8 µg/mL (≈ 13.7 µM). It also gave an MIC (Staphylococcus aureus [11]) of 6.2 µg/mL (≈ 10.6 µM).
